Reference: patent publication US6596271B2, “Insect control method with genetically engineered biopesticides” (priority 1996, dated 2003)
Marks after values point to notes of the source that are not given here.

Tests used:
[1] = test system: neonate larvae of H. virescens; format: in vivo, Heliothis virescens; settings: at the μg insecticide/vial of Table 4
Excerpt: As indicated previously, these studies have emphasized the effects of combinations of viral and chemical insecticides on LT50, but the same approaches could be applied to dose as well as time. […] In practice a variety of factors would influence the rates used, including the cost and availability of the biological and chemical pesticide, environmental concerns, level of resistant populations in the field, and other pest management considerations.
Two of the compounds studied were pyrethroids, allethrin (Type I pyrethroid) or cypermethrin (Type II pyrethroid). In our study we found a subadditive response when low rates of allethrin or cypermethrin were combined with wild-type AcNPV.

[2] = test system: neonate larvae of H. virescens; experiment: Time-response of neonate larvae to NPVs with low concentrations of classical insecticides (droplet feeding, treated vials); format: in vivo, Heliothis virescens; settings: 2000 PIBs and/or LC10-LC20 (24 h) insecticide
Excerpt: For example, two of the compounds studied were pyrethroids, […]. In our study we found a subadditive response when low rates of allethrin or cypermethrin were combined with wild-type AcNPV.

C=CCC1=C(C)C(OC(=O)C2C(C=C(C)C)C2(C)C)CC1=O (centres unmarked) [Allethrin]
% Mortality at 24 hours [1]: 14.0% | Actual Kill Time (LT50, h) [2]: 132 h | LT10 (h; 95% CL) [2]: 17.3 (11.5-22.5) h | LT50 (h; 95% CL) [2]: 132 (106-185) h | LT90 (h; 95% CL) [2]: 1000 (552-2680) h

O=S1OCC2C(CO1)C1(Cl)C(Cl)=C(Cl)C2(Cl)C1(Cl)Cl (centres unmarked) [Endosulfan]
% Mortality at 24 hours [1]: 17.5% | Actual Kill Time (LT50, h) [2]: 73.3 h | LT10 (h; 95% CL) [2]: 10.4 (3.75-17.3) h | LT50 (h; 95% CL) [2]: 73.3 (61.0-90.3) h | LT90 (h; 95% CL) [2]: 514 (296-1580) h

Clc1ccc(C(c2ccc(Cl)cc2)C(Cl)(Cl)Cl)cc1 [DDT]
% Mortality at 24 hours [1]: 18.8% | Actual Kill Time (LT50, h) [2]: 96.7 h | LT10 (h; 95% CL) [2]: 12.6 (3.90-23.8) h | LT50 (h; 95% CL) [2]: 96.7 (73.5-165) h | LT90 (h; 95% CL) [2]: 740 (318-10320) h

CC1(C)C(C=C(Cl)Cl)C1C(=O)OC(C#N)c1cccc(Oc2ccccc2)c1 (centres unmarked) [Cypermethrin]
% Mortality at 24 hours [1]: 11.8% | Actual Kill Time (LT50, h) [2]: 124 h | LT10 (h; 95% CL) [2]: 17.1 (7.99-24.8) h | LT50 (h; 95% CL) [2]: 124 (97.5-195) h | LT90 (h; 95% CL) [2]: 902 (436-4190) h

CCCSP(=O)(OCC)Oc1ccc(Br)cc1Cl (centres unmarked) [Profenofos]
% Mortality at 24 hours [1]: 16.3% | Actual Kill Time (LT50, h) [2]: 401 h | LT10 (h; 95% CL) [2]: 8.10 (2.61-17.5) h | LT50 (h; 95% CL) [2]: 401 (260-676) h

CNC(=O)ON=C(C)SC [Methomyl]
% Mortality at 24 hours [1]: 20.8% | Actual Kill Time (LT50, h) [2]: 358 h | LT10 (h; 95% CL) [2]: 4.84 (0.12-13.1) h | LT50 (h; 95% CL) [2]: 358 (182-4070) h | LT90 (h; 95% CL) [2]: 26563 (2870-1.25 × 10^8) h
